Measurements taken from US9655975B2, “Prodrug using nitroimidazole” (UNIVERSITY OF TSUKUBA, priority 2012, dated 2017).

Legend:
Format in all cases: cell-based
[1] = system: Human pancreatic cancer cells (MIA PaCa-2); assay: Evaluation of cell survival rate by WST assay, normal vs low oxygen (Example 7, Comparative Example)
Experimental: Human pancreatic cancer cells (MIA PaCa-2, acquired from Riken Cell Bank) were dispensed at a density of 5,000 cells/well and cultured for 24 hours in Dulbecco's modified Eagle medium (DMEM), following which Compound 7 was added to the specified concentration and 6 hours of culturing was carried out at a normal oxygen concentration (20%) or a low oxygen concentration (0.1%). After culturing, DMEM medium replacement was carried out, the compound was removed, and 48 hours of culturing was carried out in a normal oxygen concentration incubator, following which the cell survival rate was analyzed by a WST assay.
Compound 8 below, which is mentioned in WO 2009/018163 A1, was furnished for use. The cell survival rates were compared in tests conducted by the method described in Example 7 on both Compound 8 and a compound within the scope of this invention (aside from the fact that the corresponding linker was —CH2CH2C(═O)—, the manner of bonding between nitroimidazole and the drug was the same; Compound 7 of Example 6).

cultured cells = assay: Incubation of Compound 5 in cultured cells under low oxygen (Example 4), release of naphthylmethylamine by HPLC; conditions: Compound 5 at 1 mM, 6 hours, 20% O2 vs 1% O2, HPLC, FIG. 2
Experimental: This example was carried out to confirm that Compound 5 is reduced in cells within a hypoxic environment, and that naphthylmethylamine is released by a subsequent intramolecular cyclization reaction.
A cell suspension prepared to a cell count of 1×10^4 cells/mL was dispensed into a 96-well plate, and the cells were cultured by 24 hours of incubation at 37° C. After 24 hours, the synthesized Compound 5 was added to the cells in an amount of 1 mM. Following addition, the cells were cultured for 6 hours each in a normal oxygen concentration incubator (20% O2) or at a low-oxygen work station (1% O2). The culture medium was then recovered, 50 μL of Trypsin/EDTA was added and 5 minutes of incubation was carried out, following which the cells were stripped away and added to the medium that was earlier recovered. Next, the recovered sample was freeze-dried overnight, 200 μL of acetonitrile was added, and 30 minutes of ultrasonic cleaning was carried out. In addition, dead cells were precipitated by centrifugal separation (3,000 rpm, 10 min), the supernatant was recovered, and the acetonitrile was removed with a centrifugal evaporator. Next, 200 μL of methanol (for LC/MS) was added to the Eppendorf tube used in centrifugation, the tube contents were passed through a filter (0.2 μm), and LC/MS measurement and high-performance liquid chromatography (HPLC) measurement were carried out. […]

[2] = system: Human pancreatic cancer cells (MIA PaCa-2); assay: Incubation of Compound 5 in MIA PaCa-2 cells under low oxygen (Example 5), release by LC/MS; conditions: Compound 5 at 10 μM, MIA PaCa-2, 20% O2 vs 0.1% O2, LC/MS, FIG. 3
Experimental: Human pancreatic cancer cells (MIA PaCa-2, acquired from Riken Cell Bank) were prepared as a suspension having a cell count of 1×10^4 cells/mL), and dispensed into a 96-well plate. After 24 hours, Compound 5 was added to a concentration of 10 μM and the cells were cultured, in a normal oxygen concentration incubator (20% O2) or at a low-oxygen work station (0.1% O2). After a given time had elapsed, the culture medium was recovered, trypsin was added and the cells were recovered. The recovered cells were disrupted by sonic treatment, the compound was extracted with acetonitrile, and analysis by LC/MS was carried out under the following conditions.
Column used: Lachrom Ultra C18 (particle size, 2 μm; 2 mm×50 mm) column
Measurement wavelength: 220 nm
Eluent A: 0.1% TFA-containing milliQ
Gradient: 95:5 (Eluent A:Eluent B)→95:5 (5 minutes)→30:70 (15 minutes)
By carrying out this measurement, the amount of compound released in a low-oxygen environment and the amount of compound released in a normal oxygen environment were compared.

[3] = system: Human pancreatic cancer cells (MIA PaCa-2); assay: Release of drug from prednisolone prodrug in low-oxygen environment (Example 16), LC/MS; conditions: Compound 13 at a concentration of 10, one hour, 20% O2 vs 0.1% O2, LC/MS, FIG. 8
Experimental: Human pancreatic cancer cells (MIA PaCa-2, acquired from Riken Cell Bank) were prepared as a suspension having a cell count of 1×10^4 cells/mL), and dispensed into a 96-well plate. After 24 hours, Compound 13 was added to a concentration of 10 and the cells were cultured in a normal oxygen concentration incubator (20% O2) or at a low-oxygen work station (0.1% O2). One hour layer, the culture medium was recovered, trypsin was added, and the cells were recovered. The recovered cells were disrupted by sonic treatment and the compound was extracted with acetonitrile, following which analysis by LC/MS of the amount of prednisolone released was carried out under the following conditions.
Column used: TSKgel ODS-100Z (particle size, 3 μm; 2 mm×75 mm) column
Measurement wavelength: 250 nm
Eluent A: 0.1 M ammonium acetate
Gradient: 40:60 (Eluent A:Eluent B)→10:90 (20 minutes)
By carrying out this measurement, the amount of compound released in a low-oxygen environment was compared with the amount released in a normal oxygen environment.

COc1cccc2c1C(=O)c1c(O)c3c(c(O)c1C2=O)CC(O)(C(=O)CO)CC3OC1CC(NC(=O)CCn2ccnc2[N+](=O)[O-])C(O)C(C)O1 (centres unmarked) [Compound 7]
cell survival rate at low oxygen concentration compared with normal oxygen concentration ([1]; 6 hours at 20% or 0.1% O2, then 48 hours normal oxygen, WST assay, FIG. 4): significantly lowers the survival rate of human pancreatic cancer cells at a low-oxygen concentration compared with a normal oxygen concentration | cytotoxicity compared with known Compound 8 ([1]; method of Example 7, MIA PaCa-2, FIG. 5): significantly higher cytotoxicity

O=C(CCn1ccnc1[N+](=O)[O-])NCc1cccc2ccccc12 [Compound 5, N-Naphthylmethyl-3-(2-Nitro-1H-Imidazolyl)propionylamide]
amount of naphthylmethylamine released in low-oxygen vs normal oxygen environment (cultured cells): much naphthylmethylamine is released in a low-oxygen environment | amount of naphthylmethylamine released in low-oxygen vs normal oxygen environment [2]: much naphthylmethylamine is released in a low-oxygen environment

C[C@]12C=CC(=O)C=C1CC[C@@H]1[C@@H]2[C@@H](O)C[C@@]2(C)[C@H]1CC[C@]2(O)C(=O)COC(=O)CCn1ccnc1[N+](=O)[O-] [Compound 13]
amount of prednisolone released in low-oxygen vs normal oxygen environment [3]: much prednisolone is released in a low-oxygen environment
